Laboratory results from PubChem BioAssay AID248 (DTP/NCI, 2004).
Several values for one entry are separate records, joined by “and”; a condition that tells them apart may be missing. Equal values may be shown once. Toxic doses and inconclusive results are not listed. Rule as the data show it: active = T/C of 150% or more; inactive = T/C below 125%.

Tested on: L1210 leukemia ip in BDF1 mice, survival T/C
Assay: NCI In Vivo Anticancer Drug Screen. Data for tumor model L1210 Leukemia (intraperitoneal) in B6D2F1 (BDF1) mice
Conditions: endpoint: mean survival time, higher = longer survival
Procedure, shortened: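 Survival endpoint. Drug-treated group vs vehicle group, expressed as T divided by C. Tumor passaged by transplantation.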

[1] = dose: 50.0 mg/kg/injection, schedule: Q01DX001 (ip), vehicle: saline
[2] = dose: 100.0 mg/kg/injection, schedule: Q01DX001 (ip), vehicle: saline
[3] = dose: 200.0 mg/kg/injection, schedule: Q01DX001 (ip), vehicle: saline
[4] = dose: 400.0 mg/kg/injection, schedule: Q01DX001 (ip), vehicle: saline
[5] = dose: 12.5 mg/kg/injection, schedule: Q04DX003 (ip), vehicle: saline
[6] = dose: 25.0 mg/kg/injection, schedule: Q04DX003 (ip), vehicle: saline
[7] = dose: 100.0 mg/kg/injection, schedule: Q04DX002 (ip), vehicle: Klucel (hydroxypropylcellulose) (HPC)
[8] = dose: 200.0 mg/kg/injection, schedule: Q04DX002 (ip), vehicle: Klucel (hydroxypropylcellulose) (HPC)
[9] = dose: 400.0 mg/kg/injection, schedule: Q04DX002 (ip), vehicle: Klucel (hydroxypropylcellulose) (HPC)
[10] = dose: 50.0 mg/kg/injection, schedule: Q04DX003 (ip), vehicle: saline
[11] = dose: 100.0 mg/kg/injection, schedule: Q01DX009 (ip), vehicle: saline with Tween-80
[12] = dose: 100.0 mg/kg/injection, schedule: Q04DX003 (ip), vehicle: saline with Tween-80
[13] = dose: 200.0 mg/kg/injection, schedule: Q01DX009 (ip), vehicle: saline with Tween-80
[14] = dose: 200.0 mg/kg/injection, schedule: Q04DX003 (ip), vehicle: saline with Tween-80
[15] = dose: 400.0 mg/kg/injection, schedule: Q04DX003 (ip), vehicle: saline with Tween-80

Measured: T/C

CCOC(=O)C1(O)CSC(O)(C(=O)OCC)CS1 (stereo not drawn)
inactive: dose: 100.0 mg/kg/injection, schedule: Q01DX001 (ip), vehicle: other 101 % of control | dose: 200.0 mg/kg/injection, schedule: Q01DX001 (ip), vehicle: other 97 % of control | dose: 400.0 mg/kg/injection, schedule: Q01DX001 (ip), vehicle: other 92 % of control

CC(=O)Nc1cc2c(cc1CC(=O)O)OCO2
inactive: [1] 101 % of control | [2] 95 % of control | [3] 95 % of control | [4] 101 % of control

COc1ccc(C(=O)O)nc1C
inactive: dose: 75.0 mg/kg/injection, schedule: Q01DX001 (ip), vehicle: acetone 98 % of control | dose: 150.0 mg/kg/injection, schedule: Q01DX001 (ip), vehicle: acetone 101 % of control | dose: 300.0 mg/kg/injection, schedule: Q01DX001 (ip), vehicle: acetone 98 % of control

CC1OC(O[C@H]2C[C@@H](O)[C@]3(CO)[C@H]4[C@H](O)C[C@]5(C)[C@@H](C6=CC(=O)OC6)CC[C@]5(O)[C@@H]4CC[C@]3(O)C2)C(O)C(O)C1O (stereo partly drawn)
inactive: dose: 0.31 mg/kg/injection, schedule: Q01DX009 (ip), vehicle: saline 101 % of control | dose: 0.63 mg/kg/injection, schedule: Q01DX009 (ip), vehicle: saline 101 % of control | dose: 1.25 mg/kg/injection, schedule: Q01DX009 (ip), vehicle: saline 98 % of control | dose: 2.5 mg/kg/injection, schedule: Q01DX009 (ip), vehicle: saline 102 % of control and 108 % of control | [5] 92 % of control | [6] 103 % of control

CC(CCc1ccc(OC(=O)c2ccccc2)cc1)OC(=O)c1ccccc1 (stereo not drawn)
inactive: [1] 101 % of control | [2] 95 % of control | [3] 98 % of control | [4] 95 % of control

COc1ccc(NC(=O)Nc2cccc(SC)c2)cc1
inactive: dose: 100.0 mg/kg/injection, schedule: Q01DX009 (ip), vehicle: carboxymethylcellulose (CMC) 94 % of control and 97 % of control | [7] 93 % of control | dose: 100.0 mg/kg/injection, schedule: Q04DX002 (ip), vehicle: carboxymethylcellulose (CMC) 97 % of control and 101 % of control | dose: 100.0 mg/kg/injection, schedule: Q04DX003 (ip), vehicle: carboxymethylcellulose (CMC) 94 % of control | dose: 200.0 mg/kg/injection, schedule: Q01DX009 (ip), vehicle: carboxymethylcellulose (CMC) 92 % of control and 95 % of control | [8] 93 % of control | dose: 200.0 mg/kg/injection, schedule: Q04DX002 (ip), vehicle: carboxymethylcellulose (CMC) 100 % of control and 91 % of control | dose: 200.0 mg/kg/injection, schedule: Q04DX003 (ip), vehicle: carboxymethylcellulose (CMC) 86 % of control | dose: 400.0 mg/kg/injection, schedule: Q01DX009 (ip), vehicle: carboxymethylcellulose (CMC) 94 % of control | [9] 107 % of control | dose: 400.0 mg/kg/injection, schedule: Q04DX002 (ip), vehicle: carboxymethylcellulose (CMC) 111 % of control and 91 % of control | dose: 400.0 mg/kg/injection, schedule: Q04DX003 (ip), vehicle: carboxymethylcellulose (CMC) 93 % of control

CC(C)(C)C#C[P+](C#CC(C)(C)C)(Cc1ccccc1)c1ccccc1
inactive: dose: 12.5 mg/kg/injection, schedule: Q01DX009 (ip), vehicle: saline 99 % of control | [5] 98 % of control | dose: 25.0 mg/kg/injection, schedule: Q01DX009 (ip), vehicle: saline 94 % of control | [6] 106 % of control | [10] 117 % of control

COc1cc(C(=O)OC2=CC(=O)c3nc(OC(=O)c4cc(OC)c(OC)c(OC)c4)ccc3C2=O)cc(OC)c1OC
inactive: [2] 93 % of control | [3] 91 % of control | [4] 95 % of control

CCOC(=O)NCCc1ccc(OC)c(OC)c1
inactive: [11] 92 % of control | [12] 97 % of control | [13] 91 % of control | [14] 112 % of control | dose: 400.0 mg/kg/injection, schedule: Q01DX009 (ip), vehicle: saline with Tween-80 96 % of control | [15] 102 % of control

CC(=O)c1ccc(Br)cc1OCC(=O)O
inactive: dose: 100.0 mg/kg/injection, schedule: Q01DX009 (ip), vehicle: gum acacia 102 % of control | dose: 100.0 mg/kg/injection, schedule: Q04DX003 (ip), vehicle: gum acacia 97 % of control | dose: 200.0 mg/kg/injection, schedule: Q01DX009 (ip), vehicle: gum acacia 103 % of control | dose: 200.0 mg/kg/injection, schedule: Q04DX003 (ip), vehicle: gum acacia 92 % of control | dose: 400.0 mg/kg/injection, schedule: Q04DX003 (ip), vehicle: gum acacia 94 % of control

CCC(=O)c1ccc2c(c1)N(CCCN1CCN(CCO)CC1)c1ccccc1S2
inactive: dose: 1.56 mg/kg/injection, schedule: Q03HX024 (ip), vehicle: saline 114 % of control | dose: 3.12 mg/kg/injection, schedule: Q03HX024 (ip), vehicle: saline 101 % of control | dose: 4.0 mg/kg/injection, schedule: Q01DX009 (ip), vehicle: saline 101 % of control | dose: 6.25 mg/kg/injection, schedule: Q01DX009 (ip), vehicle: saline 104 % of control | dose: 6.25 mg/kg/injection, schedule: Q03HX024 (ip), vehicle: saline 110 % of control | dose: 6.25 mg/kg/injection, schedule: Q04DX003 (ip), vehicle: saline 113 % of control | dose: 8.0 mg/kg/injection, schedule: Q01DX009 (ip), vehicle: saline 105 % of control | [5] 93 % of control | dose: 18.75 mg/kg/injection, schedule: Q01DX001 (ip), vehicle: saline 110 % of control | [6] 98 % of control | dose: 32.0 mg/kg/injection, schedule: Q01DX009 (ip), vehicle: saline 90 % of control | dose: 37.5 mg/kg/injection, schedule: Q01DX001 (ip), vehicle: saline 103 % of control | [10] 95 % of control | dose: 75.0 mg/kg/injection, schedule: Q01DX001 (ip), vehicle: saline 119 % of control | dose: 100.0 mg/kg/injection, schedule: Q04DX003 (ip), vehicle: saline 115 % of control

N#CC(c1ccc(Cl)cc1)c1ccc(N(CCO)CCO)cc1 (stereo not drawn)
inactive: [2] 99 % of control | dose: 100.0 mg/kg/injection, schedule: Q04DX003 (ip), vehicle: acetone 103 % of control | [3] 99 % of control | dose: 200.0 mg/kg/injection, schedule: Q04DX003 (ip), vehicle: acetone 97 % of control | [4] 86 % of control | dose: 400.0 mg/kg/injection, schedule: Q04DX003 (ip), vehicle: acetone 91 % of control

CC(=O)C1CC[C@@]2(C)C(CC[C@H]3[C@@H]4CCC[C@H]([C@H](C)O)[C@@]4(C)CC[C@@H]32)C1 (stereo partly drawn)
inactive: dose: 100.0 mg/kg/injection, schedule: Q04DX003 (ip), vehicle: steriod suspending solution 106 % of control | dose: 200.0 mg/kg/injection, schedule: Q04DX003 (ip), vehicle: steriod suspending solution 95 % of control | dose: 400.0 mg/kg/injection, schedule: Q04DX003 (ip), vehicle: steriod suspending solution 119 % of control

CCOC(=O)C(OCc1ccccc1)(C(=O)O)C(C)C (stereo not drawn)
inactive: dose: 25.0 mg/kg/injection, schedule: Q04DX003 (ip), vehicle: saline with Tween-80 93 % of control | dose: 50.0 mg/kg/injection, schedule: Q04DX003 (ip), vehicle: saline with Tween-80 97 % of control | [12] 98 % of control | [14] 103 % of control

CC(C)=CCc1c2c(c3occ(-c4ccc(O)cc4)c(=O)c3c1O)C=CC(C)(C)O2
inactive: dose: 100.0 mg/kg/injection, schedule: Q04DX003 (ip), vehicle: Klucel (hydroxypropylcellulose) (HPC) 88 % of control | dose: 400.0 mg/kg/injection, schedule: Q04DX003 (ip), vehicle: Klucel (hydroxypropylcellulose) (HPC) 88 % of control

O=C(N/N=C/c1cccc([N+](=O)[O-])c1)c1ccc(Cl)c(Cl)c1
inactive: dose: 50.0 mg/kg/injection, schedule: Q01DX009 (ip), vehicle: saline with Tween-80 93 % of control | [11] 93 % of control | [13] 90 % of control

CC12CCC(/C(=N/O)C1=O)C2(C)C (stereo not drawn)
inactive: [7] 106 % of control | [8] 110 % of control | [9] 103 % of control

O=NN1CCCCC1
inactive: [1] 93 % of control | [2] 104 % of control | [3] 96 % of control

CCOC(=O)Nc1cc2n[nH]nc2c(NC(c2ccccc2)c2ccccc2)n1
inactive: [12] 94 % of control | [14] 87 % of control | [15] 92 % of control
